Reference: PubChem BioAssay AID330 (DTP/NCI, 2004)
Several values for one entry are separate records, joined by “and”; a condition that tells them apart may be missing. Identical values can stand only once. Toxic doses and inconclusive results are not listed.

System: P388 leukemia ip, CD2F1 mice, survival T/C
Experiment: NCI In Vivo Anticancer Drug Screen. Data for tumor model P388 Leukemia (intraperitoneal) in CD2F1 (CDF1) mice
Details: endpoint: median survival time, higher = longer survival
In short: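 Mice carrying the transplanted tumor received test compound or vehicle. Survival was recorded in each group, and the value is the treated-group measurement divided by that of the vehicle-treated control group.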

[1] = dose: 60.0 mg/kg/injection, schedule: Q01DX005 (ip), vehicle: saline with Tween-80
[2] = dose: 120.0 mg/kg/injection, schedule: Q01DX005 (ip), vehicle: saline with Tween-80
[3] = dose: 240.0 mg/kg/injection, schedule: Q01DX005 (ip), vehicle: saline with Tween-80
[4] = dose: 50.0 mg/kg/injection, schedule: Q01DX009 (ip), vehicle: Klucel (hydroxypropylcellulose) (HPC)
[5] = dose: 100.0 mg/kg/injection, schedule: Q01DX009 (ip), vehicle: Klucel (hydroxypropylcellulose) (HPC)
[6] = dose: 50.0 mg/kg/injection, schedule: Q01DX005 (ip), vehicle: Klucel (hydroxypropylcellulose) (HPC)
[7] = dose: 100.0 mg/kg/injection, schedule: Q01DX005 (ip), vehicle: Klucel (hydroxypropylcellulose) (HPC)
[8] = dose: 200.0 mg/kg/injection, schedule: Q01DX005 (ip), vehicle: Klucel (hydroxypropylcellulose) (HPC)

## CCCCOc1ccc2nc3cc(Cl)ccc3c(Cl)c2n1
dose: 6.25 mg/kg/injection, schedule: Q01DX005 (ip), vehicle: saline with Tween-80
  T/C: 92 % of control
dose: 12.5 mg/kg/injection, schedule: Q01DX005 (ip), vehicle: saline with Tween-80
  T/C: 93 % of control
dose: 25.0 mg/kg/injection, schedule: Q01DX005 (ip), vehicle: saline with Tween-80
  T/C: 86 % of control

## N#CC(C#N)=CNc1ccccc1C(=O)NCCCn1ccnc1
[1]
  T/C: 93 % of control
[2]
  T/C: 93 % of control
[3]
  T/C: 95 % of control

## Oc1cc2c(cc1O)[C@H]1c3ccc(O)c(O)c3OC[C@@]1(O)C2
dose: 6.25 mg/kg/injection, schedule: Q01DX009 (ip), vehicle: saline
  T/C: 100 % of control
dose: 12.5 mg/kg/injection, schedule: Q01DX009 (ip), vehicle: saline
  T/C: 101 % of control
dose: 25.0 mg/kg/injection, schedule: Q01DX009 (ip), vehicle: saline
  T/C: 112 % of control
dose: 50.0 mg/kg/injection, schedule: Q01DX009 (ip), vehicle: saline
  T/C: 122 % of control
dose: 100.0 mg/kg/injection, schedule: Q01DX009 (ip), vehicle: saline
  T/C: 113 % of control
dose: 200.0 mg/kg/injection, schedule: Q01DX009 (ip), vehicle: saline
  T/C: 115 % of control

## CCOc1cc2c(cc1C(C)c1ccc(O)cc1)OCO2 (stereo not drawn)
dose: 50.0 mg/kg/injection, schedule: Q01DX005 (ip), vehicle: distilled water + Tween-80
  T/C: 102 % of control
dose: 100.0 mg/kg/injection, schedule: Q01DX005 (ip), vehicle: distilled water + Tween-80
  T/C: 105 % of control
dose: 200.0 mg/kg/injection, schedule: Q01DX005 (ip), vehicle: distilled water + Tween-80
  T/C: 109 % of control

## CC[Si](C#CCOc1ccccc1C1OCCO1)(CC)CC
[1]
  T/C: 105 % of control
[2]
  T/C: 101 % of control
[3]
  T/C: 99 % of control

## c1ccc2nc3c(nc2c1)[nH]c1ccccc13
dose: 6.25 mg/kg/injection, schedule: Q01DX009 (ip), vehicle: Klucel (hydroxypropylcellulose) (HPC)
  T/C: 101 % of control
dose: 12.5 mg/kg/injection, schedule: Q01DX009 (ip), vehicle: Klucel (hydroxypropylcellulose) (HPC)
  T/C: 95 % of control
dose: 25.0 mg/kg/injection, schedule: Q01DX009 (ip), vehicle: Klucel (hydroxypropylcellulose) (HPC)
  T/C: 103 % of control
[4]
  T/C: 95 % of control

## CCOC1(NC(=O)N(C)C)C2CCCCC21 (stereo not drawn)
[4]
  T/C: 98 % of control
[5]
  T/C: 104 % of control
dose: 200.0 mg/kg/injection, schedule: Q01DX009 (ip), vehicle: Klucel (hydroxypropylcellulose) (HPC)
  T/C: 101 % of control

## COc1ccc2nc(Cl)c(CO)c(CO)c2c1
[6]
  T/C: 102 % of control
[7]
  T/C: 95 % of control
[8]
  T/C: 105 % of control

## c1cc(-c2cc3ccc(C4=NCCN4)cc3[nH]2)ccc1C1=NCCN1
dose: 6.25 mg/kg/injection, schedule: Q04DX003 (ip), vehicle: saline
  T/C: 116 % of control
dose: 12.5 mg/kg/injection, schedule: Q04DX003 (ip), vehicle: saline
  T/C: 118 % of control
dose: 50.0 mg/kg/injection, schedule: Q04DX003 (ip), vehicle: saline
  T/C: 154 % of control and 171 % of control and 172 % of control

## Cc1ccc2c(c1)sc1n[nH]c(=O)n12
[4]
  T/C: 100 % of control
[5]
  T/C: 105 % of control

## CC(=O)OC1SCC2OC(=O)OC21 (stereo not drawn)
dose: 50.0 mg/kg/injection, schedule: Q01DX009 (ip), vehicle: saline with Tween-80
  T/C: 108 % of control
dose: 100.0 mg/kg/injection, schedule: Q01DX009 (ip), vehicle: saline with Tween-80
  T/C: 95 % of control
dose: 200.0 mg/kg/injection, schedule: Q01DX009 (ip), vehicle: saline with Tween-80
  T/C: 96 % of control

## Nc1nc2ncc(CN(C(=O)CCCl)c3ccc(C(=O)NC(CCC(=O)O)C(=O)O)cc3)nc2c(=O)[nH]1 (stereo not drawn)
dose: 50.0 mg/kg/injection, schedule: Q01DX009 (ip), vehicle: alkali diluted with saline
  T/C: 100 % of control
dose: 100.0 mg/kg/injection, schedule: Q01DX009 (ip), vehicle: alkali diluted with saline
  T/C: 108 % of control
dose: 200.0 mg/kg/injection, schedule: Q01DX009 (ip), vehicle: alkali diluted with saline
  T/C: 101 % of control

## CCOC(=O)c1ccc2c(c1)nc(-c1ccccn1)n2CCc1ccccn1
dose: 25.0 mg/kg/injection, schedule: Q01DX005 (ip), vehicle: Klucel (hydroxypropylcellulose) (HPC)
  T/C: 100 % of control and 102 % of control
[6]
  T/C: 98 % of control
[7]
  T/C: 100 % of control and 107 % of control
[8]
  T/C: 109 % of control and 110 % of control
